Reference: patent publication US11986482B2, “Method of promoting antitumor or anti-cancer immunity” (City University of Hong Kong, priority 2021, dated 2024)

How the values were obtained:
LC3 and p62 = test: Autophagy readouts: LC3/p62 western blot and GFP-RFP-LC3 puncta in HeLa cells; type: cell-based; details: 6 h
Description: HeLa cells are treated with or without 6J1. After 6 h, cells are collected for western blot analysis of LC3 and p62. […] In addition, ATG5-knockout HeLa cells are transfected with PD-L1-GFP and LC3-RFP, and then treated with or without 6J1 (1 μM) for 24 h. Cells are fixed and imaged. […] Furthermore, LC3B-knockout HeLa cells are transfected with PD-L1-GFP, and then treated with or without 6J1 (1 μM) for 24 h. Cells are fixed and stained with antibodies against Rab5 (FIG. 6d) or Rab27a (FIG. 6e).

PD-L1-knockout 4T1 cells = test: PD-L1-knockout 4T1 tumors in Balb/c mice; type: in vivo, mouse; details: 30 mg/kg, daily, oral gavage
Description: To assess whether the in vivo antitumor growth effect of 6J1 is related to its effect on PD-L1 in 4T1 cells, inventors knock out PD-L1 via CRISPR/Cas9 in 4T1 cells (FIG. 10a). 4T1-NC or 4T1-PD-L1 knockout cells are treated with or without 6J1 (1 μM) for 24 h. The supernatant is collected, and the concentration of extracellular vesicle is determined using a Nanosight nanoparticle analyzer. The exosomes are also collected and subjected to western blot analysis of the EVs marker and PD-L1. […] Inventors then transplant control or PD-L1-knockout 4T1 cells into the fat pad of syngeneic female Balb/c mice. The mice are randomly divided (n=5 per group) and treated with either buffer or 6J1 (30 mg/kg, daily) via oral gavage.

PD-L1 = test: Plasma membrane PD-L1 level in 4T1 cells (flow cytometry); type: cell-based, mouse; details: 1 μM
Description: The current PD-L1 and PD1 therapies apply PD-L1 or PD1 monoclonal antibodies to block the PD-L1/PD1 signaling, which results in cytotoxic T cells recognizing and killing the tumor cells. […] First, flow cytometry-based quantification of plasma membrane levels of PD-L1 in 4T1 cells treated with or without 6J1 (1 μM) for 24 h. 4T1 cells are treated with or without 6J1 (1 μM) for 24 h. The supernatant is collected, and the concentration of extracellular vesicle is determined using a Nanosight nanoparticle analyzer in FIG. 8b. The exosomes are also collected and subjected to western blot analysis of the EVs marker and PD-L1 in FIG. 8c.
Therefore, it is possible that the increased exosomal PD-L1 secretion induced by 6J1 may still suppress the tumor-infiltrating T cell cytotoxicity in vivo, even though 6J1 reduces the cell surface expression level of PD-L1 on the tumor cells. To evaluate the role of exosomal PD-L1 in the tumor microenvironment and tumor progression in mice, inventors knock out Rab27a in 4T1 cells to inhibit the secretion of exosomes. 4T1-shNC or 4T1-shRab27A cells are treated with or without 6J1 (1 μM). The supernatant is collected, and the concentration of extracellular vesicle is determined using a Nanosight nanoparticle analyzer. […] Inventors analyze the plasma membrane levels of PD-L1 in 4T1-shNC or 4T1-shRab27A cells treated with or without 6J1 (1 μM). […] Next, control or Rab27a-knockout 4T1 cells are orthotopically transplanted into syngeneic fat pads of female Balb/c. The mice are randomly divided (n=5 per group) and treated with either buffer or 6J1 (30 mg/kg, daily) via oral gavage. […] Inventors also perform the immunostaining of CD8 and Granzyme B in the tumor sections. […] Since enhanced antitumor immunity leads to increased apoptosis in tumors, inventors assess the levels of cleaved caspase3 (CCA3), one of the markers of apoptosis, in tumor sections as well.
Finally, inventors assess the combinatory effects of 6J1 with GW4869, an exosome secretion inhibitor, in the aforementioned orthotopic mammary carcinoma mouse models. […]

HeLa cells = test: DQ-BSA endocytic trafficking assay; type: cell-based; details: 1 μM, 3 h then 6 h with 10 μg/ml DQ-green BSA, flow cytometry
Description: A DQ-BSA endocytic trafficking assay screens these compounds. DQ-BSA, a self-quenching dye, is internalized into the cytoplasm by endocytosis, after which it is delivered to the lysosomes for degradation to relieve fluorescence-quenching, resulting in bright fluorescence in cells. HeLa cells are plated on 6-well plates and treated with the indicated compound for 3 h. Then, cells are replaced with Trafficking media containing 10 μg/ml DQ-green BSA with or without drugs (1 μM) and incubated at 37° C. in a 5% CO2 humidified cell culture chamber another 6 h followed by Flow cytometry analysis. […] Inventors also test whether these hit compounds can inhibit the recycling endosomal pathway by performing the fluorescent transferrin conjugates recycling assay. Iron-bound transferrin interacts with its receptor (TfR) to trigger the internalization of the iron-transferrin-TfR complex via clathrin-mediated endocytosis. Fe^3+ irons are subsequently dissociated from their ligands in the acidic endosome environment and released into the cytoplasm. […] Thus, the fluorescence intensity of fluorescent transferrin conjugates-labeled cells can reflect the recycling endocytic trafficking process. […] Cells are collected for flow cytometry analysis, and the mean fluorescence intensity of transferrin is quantified.

[1] = tested on: HeLa, A549 and MDA-MB-231 cell lines; test: Cytotoxicity, propidium iodide cell death ratio; type: cell-based; details: 24 h or 48 h
Description: The inventors also test the cytotoxicity of 6J1 in several cancer cell lines, HeLa, A549 and MDA-MB-231 cell lines. Cells are grown in 96-well plates in triplicate and treated with or without 6J1 at the concentrations of 0, 0.01, 0.1, 1, 10 and 100 μM indicated for 24 h or 48 h. They are then stained with propidium iodide (PI) or Hochest 33342 to measure the cell death ratio and cell number, respectively. […] Inventors also test the cytotoxicity of 6J1 in 4T1 cells. 4T1 cells are plated in 96-well plates in triplicate and treated with or without 6J1 at the concentrations of 0, 0.01, 0.1, 1, 5, 10, 20, 40, 80 and 100 μM indicated for 24 h or 48 h. The cell viability was then quantified via the MTT assay.

[2] = Oral bioavailability (stated, no method); details: in vivo
[3] = GFP-RFP-LC3-expressing HeLa cells, 1 μM

## OCCOCCN(c1ccccc1)c1nc(N/N=C/c2cccc(I)c2)nc(N2CCOCC2)n1 [Compound 6J1]
LC3 and p62; [3]
  formation of yellow LC3B puncta: significantly induces the formation of yellow LC3B puncta
  red-only LC3B puncta: no red-only LC3B puncta are observed
LC3 and p62; HeLa cells, western blot
  level of LC3B-II and P62: markedly induced an increase in the level of LC3B-II and P62
PD-L1-knockout 4T1 cells
  tumor growth in mice implanted with PD-L1-knockout 4T1 cells: fails to decrease further tumor growth
PD-L1; 4T1-shRab27A cells
  6J1-induced decrease of cell surface PD-L1 levels: does not influence the 6J1-induced decrease of cell surface PD-L1 levels
PD-L1; 4T1 cells, 24 h
  level of cell surface PD-L1: decreases the level of cell surface PD-L1
HeLa cells
  endocytic trafficking (fluorescence intensity of DQ-BSA-labeled cells): dramatically inhibit endocytic trafficking
[1]; 0.01-100 μM
  cell death: induces cell death in a concentration-dependent manner
[1]; ≤1 μM
  cell death at effective concentrations: hardly induces any cell death
[2]
  oral bioavailability: good oral bioavailability
